According to patent publication US9321742B2, “N1-cyclic amine-N5-substituted biguanide derivatives, methods of preparing the same and pharmaceutical composition comprising the same” (IMMUNOMET THERAPEUTICS INC., priority 2011, dated 2016):

tested on: HCT116 cells; test: Measurement of effect of inhibiting cancer cell proliferation (MTT); assay type: cell-based; details: Homo sapiens, HCT-116, 100 uM, 48 hours, read-out: Cell Growth Inhibition (%) at 100 uM
Description: HCT116 cells derived from human colorectal cancer (commercially available from the Korean Cell Line Bank) were used, and the effect of inhibiting cancer cell proliferation of the biguanide derivative was confirmed by measuring the concentration value (cell growth inhibition concentration, GIC50) at which cell growth was inhibited by 50% using a 3-(4,5-dimethylthiazol-2-yl)-2,5-[…] bromide (MTT) reagent.
First, HCT116 cells were put on a 96-well plate and cultured in a DMEM medium containing 10% fetal bovine serum for 16 hours so that the cellcount in each well was approximately 5,000. Subsequently, to obtain the GIC50 value of each compound, culture media were treated with 100 μM, 25 μM, 6.25 μM, 1.56 μM or 0.39 μM of the compound, and then cultured for 48 hours. At this time, some of the compounds were treated with 200 μM instead of 100 μM. Metformin hydrochloride was used as the control, and the culture media were treated with 25, 12.5, 2.5, 0.5, 0.1 mM metformin hydrochloride, and then tested in the same manner as described in the derivatives synthesized in the examples. In order to determine whether the cells survived after treatment with the compound, MTT was added to the culture media which were then cultured for another 3 hours. Formed formazane crystals were dissolved using dimethyl sulfoxide (DMSO), and the absorbance of the resulting solution was measured at 560 nm. After the 48-hours culture, the ratio of the cell count cultured on a well plate not treated with the compound to the living cell count on a well plate treated with the compounds synthesized in the examples was indicated as cell viability (%) according to each treated concentration. A cell viability curve graph was plotted and the concentration (GIC50) value of the compound at which the growth was inhibited by 50% was calculated to confirm the effect of inhibition of cancer cell proliferation. Also, the cell growth viability (%) when the concentration of the treated biguanide derivative and the metformin hydrochloride as the control were 100 uM was shown.

SMILES	inhibition at 100 µM
Cl.N=C(NCc1ccc(OC(F)(F)F)cc1)NC(=N)N1CCC1 [Example 40, N1-azetidine-N5-(4-trifluoromethoxy)benzyl biguanide hydrochloride]	97.8%
Cl.N=C(NCc1ccc(OC(F)(F)F)cc1)NC(=N)N1CCCC1 [Example 41, N1-pyrrolidine-N5-(4-trifluoromethoxy)benzyl biguanide hydrochloride]	97.4%
Cl.N=C(NCc1ccc(OC(F)(F)F)cc1)NC(=N)N1CCCCC1 [Example 42, N1-piperidine-N5-(4-trifluoromethoxy)benzyl biguanide hydrochloride]	96.8%
Cl.N=C(NCc1ccc(F)c(C(F)(F)F)c1)NC(=N)N1CCCCC1 [Example 44, N1-piperidine-N5-(4-fluoro-3-trifluoromethyl)benzyl biguanide hydrochloride]	32.6%
Cl.N=C(NCc1ccc(Cl)c(C(F)(F)F)c1)NC(=N)N1CCCCC1 [Example 45, N1-piperidine-N5-(4-chloro-3-trifluoromethyl)benzyl biguanide hydrochloride]	96.9%
Cl.N=C(NCc1ccc(C(F)(F)F)c(F)c1)NC(=N)N1CCCCC1 [Example 46, N1-piperidine-N5-(3-fluoro-4-trifluoromethyl)benzyl biguanide hydrochloride]	101%
Cl.N=C(NCc1ccc(C(F)(F)F)c(Cl)c1)NC(=N)N1CCCCC1 [Example 47, N1-piperidine-N5-(3-chloro-4-trifluoromethyl)benzyl biguanide hydrochloride]	100%
Cl.N=C(NCc1ccc(F)c(OC(F)(F)F)c1)NC(=N)N1CCCCC1 [Example 48, N1-piperidine-N5-(4-fluoro-3-trifluoromethoxy)benzyl biguanide hydrochloride]	96.4%
Cl.N=C(NCc1ccc(OC(F)(F)F)c(F)c1)NC(=N)N1CCCCC1 [Example 49, N1-piperidine-N5-(3-fluoro-4-trifluoromethoxy)benzyl biguanide hydrochloride]	97%
Cl.N=C(NCc1ccc(OC(F)(F)F)c(Cl)c1)NC(=N)N1CCCCC1 [Example 50, N1-piperidine-N5-(3-chloro-4-trifluoromethoxy)benzyl biguanide hydrochloride]	97%

same assay, conditions: Homo sapiens, HCT-116, 48 hours

SMILES	GI50
Cl.N=C(NCc1ccc(OC(F)(F)F)cc1)NC(=N)N1CCC1 [Example 40, N1-azetidine-N5-(4-trifluoromethoxy)benzyl biguanide hydrochloride]	36.9 µM
Cl.N=C(NCc1ccc(OC(F)(F)F)cc1)NC(=N)N1CCCC1 [Example 41, N1-pyrrolidine-N5-(4-trifluoromethoxy)benzyl biguanide hydrochloride]	25.6 µM
Cl.N=C(NCc1ccc(OC(F)(F)F)cc1)NC(=N)N1CCCCC1 [Example 42, N1-piperidine-N5-(4-trifluoromethoxy)benzyl biguanide hydrochloride]	16.2 µM
Cl.N=C(NCc1ccc(F)c(C(F)(F)F)c1)NC(=N)N1CCCCC1 [Example 44, N1-piperidine-N5-(4-fluoro-3-trifluoromethyl)benzyl biguanide hydrochloride]	15.2 µM
Cl.N=C(NCc1ccc(C(F)(F)F)c(F)c1)NC(=N)N1CCCCC1 [Example 46, N1-piperidine-N5-(3-fluoro-4-trifluoromethyl)benzyl biguanide hydrochloride]	21.3 µM

Molecules with a lower GI50, results first:

GI50	SMILES
13.4 µM	Cl.N=C(NCc1ccc(F)c(OC(F)(F)F)c1)NC(=N)N1CCCCC1 [Example 48, N1-piperidine-N5-(4-fluoro-3-trifluoromethoxy)benzyl biguanide hydrochloride]
9.2 µM	Cl.N=C(NCc1ccc(OC(F)(F)F)c(F)c1)NC(=N)N1CCCCC1 [Example 49, N1-piperidine-N5-(3-fluoro-4-trifluoromethoxy)benzyl biguanide hydrochloride]
8.2 µM	Cl.N=C(NCc1ccc(Cl)c(C(F)(F)F)c1)NC(=N)N1CCCCC1 [Example 45, N1-piperidine-N5-(4-chloro-3-trifluoromethyl)benzyl biguanide hydrochloride]
7.4 µM	Cl.N=C(NCc1ccc(C(F)(F)F)c(Cl)c1)NC(=N)N1CCCCC1 [Example 47, N1-piperidine-N5-(3-chloro-4-trifluoromethyl)benzyl biguanide hydrochloride]
5.7 µM	Cl.N=C(NCc1ccc(OC(F)(F)F)c(Cl)c1)NC(=N)N1CCCCC1 [Example 50, N1-piperidine-N5-(3-chloro-4-trifluoromethoxy)benzyl biguanide hydrochloride]

tested on: AMPKα; test: Measurement of AMPK-activation effect (AMPKα Thr172 phosphorylation immunoassay in MCF7 cells); assay type: cell-based, human; details: 10 uM, 24 hours, relative to untreated cells
Experimental: MCF7 cells derived from human breast cancer cells (commercially available from the Korean Cell Line Bank) were used, and the AMPK (5′-AMP-activated protein kinase alpha)-activation effect of the biguanide derivative was confirmed using an AMPKα immunoassay kit (Invitrogen, Catalog No. KH00651).
MCF7 cells were cultured in a DMEM medium supplemented with 10% fetal bovine serum. Thereafter, the cultured MCF7 cells were put into a 6-well plate with approximately 5×10^5 cells per well and cultured in an incubator supplied with 5% CO2. Culture media were treated with the derivatives synthesized in the examples at contents of 5, 10 and 50 μM, and then cultured for 24 hours. Metformin hydrochloride was used as the control, and the culture media were treated with 0.05, 0.5, 1, 2, 5 and 10 mM metformin hydrochloride, and then tested in the same manner as described in the derivatives synthesized in the examples. Subsequently, the cells were lysed according to a method presented in the operation manual of the AMPKα immunoassay kit, and 20 μg of a cell lysate was then yielded through protein assay. Thereafter, the AMPK activation effect was obtained by determining the degree of phosphorylation of 172nd threonine residue (Thr172) of the AMPKα from the cell lysate according to the method presented in the operation manual of the AMPKα immunoassay kit. […] A curve graph showing AMPK activation according to the concentration of the treated compounds was plotted based on the obtained AMPKα activation results, the concentration (activation concentration 150, AC150) value of the compound whose AMPK activation reached 150% was calculated using a GraphPad Prism 5.0 program, and the degrees of AMPK activation were obtained when concentrations of the treated biguanide derivatives were 10 μM and 50 μM and the metformin hydrochloride was 50 μM.

SMILES	AMPK activation effect 10 uM (%)
Cl.N=C(NCc1ccc(OC(F)(F)F)cc1)NC(=N)N1CCC1 [Example 40, N1-azetidine-N5-(4-trifluoromethoxy)benzyl biguanide hydrochloride]	673%
Cl.N=C(NCc1ccc(OC(F)(F)F)cc1)NC(=N)N1CCCC1 [Example 41, N1-pyrrolidine-N5-(4-trifluoromethoxy)benzyl biguanide hydrochloride]	242%
Cl.N=C(NCc1ccc(OC(F)(F)F)cc1)NC(=N)N1CCCCC1 [Example 42, N1-piperidine-N5-(4-trifluoromethoxy)benzyl biguanide hydrochloride]	472%
Cl.N=C(NCc1ccc(F)c(C(F)(F)F)c1)NC(=N)N1CCCCC1 [Example 44, N1-piperidine-N5-(4-fluoro-3-trifluoromethyl)benzyl biguanide hydrochloride]	180%
Cl.N=C(NCc1ccc(Cl)c(C(F)(F)F)c1)NC(=N)N1CCCCC1 [Example 45, N1-piperidine-N5-(4-chloro-3-trifluoromethyl)benzyl biguanide hydrochloride]	162%
Cl.N=C(NCc1ccc(C(F)(F)F)c(F)c1)NC(=N)N1CCCCC1 [Example 46, N1-piperidine-N5-(3-fluoro-4-trifluoromethyl)benzyl biguanide hydrochloride]	331%
Cl.N=C(NCc1ccc(C(F)(F)F)c(Cl)c1)NC(=N)N1CCCCC1 [Example 47, N1-piperidine-N5-(3-chloro-4-trifluoromethyl)benzyl biguanide hydrochloride]	433%
Cl.N=C(NCc1ccc(F)c(OC(F)(F)F)c1)NC(=N)N1CCCCC1 [Example 48, N1-piperidine-N5-(4-fluoro-3-trifluoromethoxy)benzyl biguanide hydrochloride]	244%
Cl.N=C(NCc1ccc(OC(F)(F)F)c(F)c1)NC(=N)N1CCCCC1 [Example 49, N1-piperidine-N5-(3-fluoro-4-trifluoromethoxy)benzyl biguanide hydrochloride]	158%
Cl.N=C(NCc1ccc(OC(F)(F)F)c(Cl)c1)NC(=N)N1CCCCC1 [Example 50, N1-piperidine-N5-(3-chloro-4-trifluoromethoxy)benzyl biguanide hydrochloride]	259%

same assay, conditions: 50 uM, 24 hours, relative to untreated cells

SMILES	AMPK activation effect 50 uM (%)
Cl.N=C(NCc1ccc(OC(F)(F)F)cc1)NC(=N)N1CCC1 [Example 40, N1-azetidine-N5-(4-trifluoromethoxy)benzyl biguanide hydrochloride]	1076%
Cl.N=C(NCc1ccc(OC(F)(F)F)cc1)NC(=N)N1CCCC1 [Example 41, N1-pyrrolidine-N5-(4-trifluoromethoxy)benzyl biguanide hydrochloride]	698%
Cl.N=C(NCc1ccc(OC(F)(F)F)cc1)NC(=N)N1CCCCC1 [Example 42, N1-piperidine-N5-(4-trifluoromethoxy)benzyl biguanide hydrochloride]	554%
Cl.N=C(NCc1ccc(F)c(C(F)(F)F)c1)NC(=N)N1CCCCC1 [Example 44, N1-piperidine-N5-(4-fluoro-3-trifluoromethyl)benzyl biguanide hydrochloride]	383%
Cl.N=C(NCc1ccc(Cl)c(C(F)(F)F)c1)NC(=N)N1CCCCC1 [Example 45, N1-piperidine-N5-(4-chloro-3-trifluoromethyl)benzyl biguanide hydrochloride]	232%
Cl.N=C(NCc1ccc(C(F)(F)F)c(F)c1)NC(=N)N1CCCCC1 [Example 46, N1-piperidine-N5-(3-fluoro-4-trifluoromethyl)benzyl biguanide hydrochloride]	389%
Cl.N=C(NCc1ccc(C(F)(F)F)c(Cl)c1)NC(=N)N1CCCCC1 [Example 47, N1-piperidine-N5-(3-chloro-4-trifluoromethyl)benzyl biguanide hydrochloride]	384%
Cl.N=C(NCc1ccc(OC(F)(F)F)c(F)c1)NC(=N)N1CCCCC1 [Example 49, N1-piperidine-N5-(3-fluoro-4-trifluoromethoxy)benzyl biguanide hydrochloride]	147%

same assay, conditions: 24 hours

SMILES	AC150 (concentration at which AMPK activation reached 150%)
Cl.N=C(NCc1ccc(OC(F)(F)F)cc1)NC(=N)N1CCC1 [Example 40, N1-azetidine-N5-(4-trifluoromethoxy)benzyl biguanide hydrochloride]	3.9 µM
Cl.N=C(NCc1ccc(OC(F)(F)F)cc1)NC(=N)N1CCCC1 [Example 41, N1-pyrrolidine-N5-(4-trifluoromethoxy)benzyl biguanide hydrochloride]	0.9 µM
Cl.N=C(NCc1ccc(OC(F)(F)F)cc1)NC(=N)N1CCCCC1 [Example 42, N1-piperidine-N5-(4-trifluoromethoxy)benzyl biguanide hydrochloride]	0.8 µM
Cl.N=C(NCc1ccc(F)c(C(F)(F)F)c1)NC(=N)N1CCCCC1 [Example 44, N1-piperidine-N5-(4-fluoro-3-trifluoromethyl)benzyl biguanide hydrochloride]	10.3 µM
Cl.N=C(NCc1ccc(Cl)c(C(F)(F)F)c1)NC(=N)N1CCCCC1 [Example 45, N1-piperidine-N5-(4-chloro-3-trifluoromethyl)benzyl biguanide hydrochloride]	1.7 µM
Cl.N=C(NCc1ccc(C(F)(F)F)c(F)c1)NC(=N)N1CCCCC1 [Example 46, N1-piperidine-N5-(3-fluoro-4-trifluoromethyl)benzyl biguanide hydrochloride]	1.1 µM
Cl.N=C(NCc1ccc(C(F)(F)F)c(Cl)c1)NC(=N)N1CCCCC1 [Example 47, N1-piperidine-N5-(3-chloro-4-trifluoromethyl)benzyl biguanide hydrochloride]	4.4 µM
Cl.N=C(NCc1ccc(F)c(OC(F)(F)F)c1)NC(=N)N1CCCCC1 [Example 48, N1-piperidine-N5-(4-fluoro-3-trifluoromethoxy)benzyl biguanide hydrochloride]	18.2 µM
Cl.N=C(NCc1ccc(OC(F)(F)F)c(F)c1)NC(=N)N1CCCCC1 [Example 49, N1-piperidine-N5-(3-fluoro-4-trifluoromethoxy)benzyl biguanide hydrochloride]	0.8 µM
Cl.N=C(NCc1ccc(OC(F)(F)F)c(Cl)c1)NC(=N)N1CCCCC1 [Example 50, N1-piperidine-N5-(3-chloro-4-trifluoromethoxy)benzyl biguanide hydrochloride]	8.8 µM

tested on: not given; test: not given; details: not given

SMILES	melting point
Cl.N=C(NCc1ccc(OC(F)(F)F)cc1)NC(=N)N1CCC1 [Example 40, N1-azetidine-N5-(4-trifluoromethoxy)benzyl biguanide hydrochloride]	182 to 184 °C
Cl.N=C(NCc1ccc(OC(F)(F)F)cc1)NC(=N)N1CCCC1 [Example 41, N1-pyrrolidine-N5-(4-trifluoromethoxy)benzyl biguanide hydrochloride]	242 to 243 °C
Cl.N=C(NCc1ccc(OC(F)(F)F)cc1)NC(=N)N1CCCCC1 [Example 42, N1-piperidine-N5-(4-trifluoromethoxy)benzyl biguanide hydrochloride]	268 to 269 °C
Cl.N=C(NCc1ccc(F)c(C(F)(F)F)c1)NC(=N)N1CCCCC1 [Example 44, N1-piperidine-N5-(4-fluoro-3-trifluoromethyl)benzyl biguanide hydrochloride]	232 to 235 °C
Cl.N=C(NCc1ccc(C(F)(F)F)c(F)c1)NC(=N)N1CCCCC1 [Example 46, N1-piperidine-N5-(3-fluoro-4-trifluoromethyl)benzyl biguanide hydrochloride]	264 to 266 °C

Second part, the molecule after the results:

melting point	SMILES
233 to 235 °C	Cl.N=C(NCc1ccc(F)c(OC(F)(F)F)c1)NC(=N)N1CCCCC1 [Example 48, N1-piperidine-N5-(4-fluoro-3-trifluoromethoxy)benzyl biguanide hydrochloride]
266 to 268 °C	Cl.N=C(NCc1ccc(OC(F)(F)F)c(F)c1)NC(=N)N1CCCCC1 [Example 49, N1-piperidine-N5-(3-fluoro-4-trifluoromethoxy)benzyl biguanide hydrochloride]
259 to 261 °C	Cl.N=C(NCc1ccc(Cl)c(C(F)(F)F)c1)NC(=N)N1CCCCC1 [Example 45, N1-piperidine-N5-(4-chloro-3-trifluoromethyl)benzyl biguanide hydrochloride]
254 to 256 °C	Cl.N=C(NCc1ccc(C(F)(F)F)c(Cl)c1)NC(=N)N1CCCCC1 [Example 47, N1-piperidine-N5-(3-chloro-4-trifluoromethyl)benzyl biguanide hydrochloride]
240 to 241 °C	Cl.N=C(NCc1ccc(OC(F)(F)F)c(Cl)c1)NC(=N)N1CCCCC1 [Example 50, N1-piperidine-N5-(3-chloro-4-trifluoromethoxy)benzyl biguanide hydrochloride]
